One data set in a line: in vitro. Particulars: African green monkey.
Data set [1] deals with human adenovirus 5. The data set can be described thus: organism not typed. Particulars: Vero.
In data set [2] the test system is human adenovirus 5.
For a further data set, the target named is mu receptors (Homo sapiens, UniProt P35372). Particulars: metabolite of Dalargin; cited from earlier work.
Data set [3] deals with influenza virus A/California/04/2009. Format: in vivo, mice.
Data set [4] concerns influenza virus A/Puerto Rico/8/34 (H1N1).
The test system of the next data set is MDCK. The data set can be described thus: 50% cytotoxic concentration, cell line used for influenza virus. Particulars: PR8 (influenza virus) section.
For data set [5], the system named is influenza virus A/Puerto Rico/8/34 (H1N1). The data set is classed as in vivo, Balb/c mice. Particulars: Group 2: Tamiflu 20 mg/kg once a day intragastrically.
Setting [6] is: Group 3: Arbidol 130 mg/kg intragastrically once a day, therapeutic.
Where [7] appears, read: Group 3: Arbidol 130 mg/kg intragastrically once a day, therapeutic, 30 animals.
Where [8] appears, read: Group 2: Ingavirin 15 mg/kg intragastrically once a day, therapeutic.
[9] abbreviates: Group 2: Ingavirin 15 mg/kg intragastrically once a day, therapeutic, 30 animals.

Values after ≈ are worked out from the molar mass of the structure shown. Where two headings read alike, the source gives them in different places. Marks after values point to notes of the source that are not given here.

Chain of mu receptors (P35372 whole entry): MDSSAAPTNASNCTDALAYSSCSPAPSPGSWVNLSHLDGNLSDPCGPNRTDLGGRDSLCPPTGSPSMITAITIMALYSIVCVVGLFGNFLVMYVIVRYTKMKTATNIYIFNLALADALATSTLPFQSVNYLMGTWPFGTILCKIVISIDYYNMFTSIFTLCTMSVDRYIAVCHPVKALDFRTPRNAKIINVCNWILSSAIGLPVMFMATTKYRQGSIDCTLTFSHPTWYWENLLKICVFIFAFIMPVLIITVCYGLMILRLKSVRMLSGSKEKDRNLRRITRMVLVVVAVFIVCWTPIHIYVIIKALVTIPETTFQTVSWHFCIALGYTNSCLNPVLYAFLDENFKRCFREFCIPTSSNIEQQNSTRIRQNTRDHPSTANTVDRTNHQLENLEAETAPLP

In turn, `Nc1nc2c(ncn2COCCO)c(=O)[nH]1` [Aciclovir] returned a CC50 in the data set “in vitro” greater than 30 µg/mL. Also, in the data set on human adenovirus 5 [1], the IC50 – broadly, the midpoint of a concentration-inhibition curve – was greater than 30 µg/mL. In the data set on human adenovirus 5 [2] (CC50/IC50, Ad5 (adenovirus)), this molecule came in with an SI of 1. Also, in the data set with human adenovirus 5 [2] (adenovirus, Vero), the “Antiviral properties (in words)” value is on record as “did not exhibit antiviral properties”.
As to Tyr-D-Ala-Gly-Phe, the “Affinity to mu receptors” value on mu receptors is on record as “exhibits affinity to mu receptors”.
Regarding `CCOC(=O)c1c(CSc2ccccc2)n(C)c2cc(Br)c(O)c(CN(C)C)c12` [Arbidol], in data set [3] (setting [6]), the “Mortality, %” value was determined as 70.00% and the “Protective index, %” value amounted to 27.59%. In addition, in data set [3] (setting [7]), the “Mortality by day 5” value was 2, the “Mortality by day 6” value came out at 2, the “Mortality by day 7” value is recorded as 7 and the “Mortality by day 8” value turned out to be 5. Also, in data set [3] (setting [7]), the “Mortality by day 9” value was 3, the “Mortality by day 10” value is given as 2 and the Residue is listed as 9.
Take `O=C(O)CCCC(=O)NCCc1c[nH]cn1` [Ingavirin]: in data set [3] (setting [8]), the “Mortality, %” value is given as 53.33% and the “Protective index, %” value is listed as 44.83%. In data set [3] (setting [9]), the “Mortality by day 6” value is 4, the “Mortality by day 7” value came to 6, the “Mortality by day 8” value turned out to be 3 and the “Mortality by day 9” value amounted to 2. Also, in data set [3] (setting [9]), the “Mortality by day 10” value is 1 and the Residue was 14. Further, in data set [3] (mouse, in vivo), the “Mortality by day 5” value is 3, the “Mortality by day 6” value stood at 4, the “Mortality by day 7” value came to 4 and the “Mortality by day 8” value was 7. Also, in data set [3] (mouse, in vivo), the “Mortality by day 9” value is given as 4; the “Mortality by day 10” value came out at 2; the “Mortality, %” value is 80.00%; the “Protective index, %” value was 17.24%. The molecule also had a Residue in data set [3] (mouse, in vivo) of 6.
Consider `CC(N)C12CC3CC(CC(C3)C1)C2` (stereo not shown) [Remantadin], for which the SI in data set [4] (CC50/IC50, PR8 (influenza virus)) is 5. The molecule further had an IC50 in data set [4] (PR8 (influenza virus), MDCK) of 11 µg/mL (≈ 61.3 µM). Further, the “Antiviral properties (in words)” value in data set [4] (influenza virus, MDCK) is reported as “did not exhibit antiviral properties”. Besides, the CC50 in the data set on MDCK amounted to 64 µg/mL (≈ 357 µM).
With `CCOC(=O)C1=C[C@@H](OC(CC)CC)[C@H](NC(C)=O)[C@@H](N)C1` [Tamiflu, oseltamivir], in data set [5], the “Mortality, %” value was 10.00% and the “Protective index, %” value was found to be 88.46%. Also, in data set [5] (30 animals), the “Mortality by day 9” value came to 2, the “Mortality by day 10” value is listed as 1 and the Residue is on record as 27*.
